Three compounds from paper PMC10253812, “Novel 2-alkythio-4-chloro-N-[imino(heteroaryl)methyl]benzenesulfonamide Derivatives: Synthesis, Molecular Structure, Anticancer Activity and Metabolic Stability” (International Journal of Molecular Sciences, 2023) can be followed below.

Data set [1] relates to HeLa cells. Kind of data set: Cell cycle distribution analysis (PI staining, flow cytometry). It counts as cell-based, human. The conditions noted are these: 48 h; for percentage of cells in the sub-G1 phase of the cell cycle: HeLa, 5, 7 and 10 µM. Here is the method: The effects of compounds 11, 12 and 13 on the cell cycle phase distribution of HeLa cells were assessed by flow cytometry. The cells were treated with 5, 7 and 10 µM concentrations of […] and 13 for 48 h and stained with PI.
Cell Cycle Distribution Analysis: The effects of 11, 12 and 13 on the cell cycle distribution in HeLa cells were determined by flow cytometry analysis. The cells were treated with 11, 12 and 13 (5, 7 and 10 µM) for 48 h, after which they were fixed in cold 70% ethanol for 24 h. The fixed cells were treated with 100 µg/mL of RNAse (Invitrogen, Germany) and stained with 10 µg/mL of PI (Invitrogen, Germany) for 30 min at RT. The acquisition was performed on a FACSCalibur cytometer (BD), and the data were analyzed with Flowing software (version 2.5).
For orientation: Flow cytometry measures light scatter and fluorescence of single cells or particles in a stream.

The test system of data set [2] is MCF-7 (breast cancer) cell line. Kind of data set: MTT cell viability assay, MCF-7. It counts as cell-based, human. Conditions: Homo sapiens, MCF7; for viability at 100 µM: MCF-7, MTT, 72 h, read-out: Viability of cell line in the presence of 100 μM of the tested compound. How it is done: (§1) Compounds 8–24 were evaluated in vitro for their cytotoxic effect against three human cancer cell lines, i.e., HeLa (cervical cancer), HCT-116 (colon cancer) and MCF-7 (breast cancer), and the non-tumor cell line HaCaT using the MTT assay after 72 h of incubation. The results of tests are presented in Table 1 as IC50, indicating the concentration required for 50% inhibition of cell viability. Compounds 8–10 and 14–18 are not presented in the Table 1 because of their low potency (IC50 > 100 µM).
(§2) All chemicals, if not stated otherwise, were obtained from Sigma-Aldrich (St. Louis, MO, USA). The MCF-7, HeLa and HaCaT cell lines were purchased from Cell Lines Services (Eppelheim, Germany), and the HCT-116 cell line was purchased from ATCC (ATCC-No: CCL-247). The cells were cultured in Dulbecco’s modified Eagle’s medium (DMEM) supplemented with 10% fetal bovine serum, 2 mM glutamine, 100 units/mL of penicillin and 100 μg/mL of streptomycin. The cultures were maintained in a humidified atmosphere with 5% CO2 at 37 °C, in an incubator (Heraeus, HeraCell).
(§3) Cytotoxicity assay: Cell viability was determined using the MTT (3-(4,5-dimethylthiazol-2-yl)-2,5diphenyltetrazoliumbromide) assay. The cells were seeded in 96-well plates at a density of 5 × 10^3 cells/well and treated for 24, 48 and 72 h with the examined compounds in the concentration range 1–100 μM. Following treatment, MTT (0.5 mg/mL) was added to the medium, and the cells were further incubated for 2 h at 37 °C. the cells were lysed with DMSO, and the absorbance of the formazan solution was measured at 550 nm with a plate reader (Victor, 1420 multilabel counter). The experiment was performed in triplicate. The values are expressed as the mean ± SD of at least three independent experiments.

A short description of data set [3]: In vitro metabolic stability assay. The conditions noted are these: for half-life at 10 μM: pH 7.4, human liver microsomes 0.5 mg/mL, 1 mM NADPH, 10 μM compound, 37 °C, n = 3, read-out: in vitro metabolic half-life t1/2. It counts as in vitro ADME, human. How it is done:
Human liver microsomes along with NADPH were used to assess their susceptibility to undergo first-phase oxidation reactions. The progress of biotransformation was followed by liquid chromatography–mass spectrometry. In order to support the in vitro results, we performed in silico calculations using the Human Liver Microsome-based model for CYP-mediated oxidations provided by the Xenosite online tool.
Stock solutions of the studied compounds were prepared at a concentration of 10 mM in DMSO. […] The incubation mixture contained the studied derivative at a 10 μM concentration, 1 mM NADPH (Sigma-Aldrich) and 0.5 mg/mL of human liver microsomes (HLM, Sigma-Aldrich) in potassium phosphate buffer (0.1 M, pH 7.4). The incubation was carried out in a thermostat at 37 °C and started by the addition of the compound of interest. Then, 20 μL samples were taken after 5, 15, 30, 45 and 60 min. The enzymatic reaction was terminated by the addition of an equal volume of ice-cold acetonitrile containing 10 μM sulfamethoxazole as an internal standard. Control incubations were performed without NADPH as a negative control reflecting NADPH-independent processes, such as chemical degradation and precipitation. After collection, the samples were immediately centrifuged (10 min, 10,000 rpm), and the resulting supernatant was directly analyzed or kept at −80 °C until LC-MS analysis. The natural logarithm of a compound over the IS peak area ratio was plotted vs. the incubation time.
The LC-MS analysis was performed on an Agilent 1260 system coupled to SingleQuad 6120 mass spectrometer (Agilent Technologies, Santa Clara, CA, USA). Poroshell EC-C18 (2.1 mm × 150 mm, 2.7 μm, Agilent Technologies, Santa Clara, CA, USA) was used in reversed-phase mode with gradient elution starting with 90% of phase A (0.1% formic acid in water) and 10% of phase B (0.1% dormic acid in acetonitrile). […] The total analysis time was 21 min at 25 °C, the flow rate was 0.5 mL/min, and the injection volume was 20 μL. The mass spectrometer was equipped with an electrospray ion source and operated in positive ionization mode. The mass analyzer was set for each individual compound to detectthe [M+H]^+ protonated molecule. The MSD parameters of the ESI source were as follows: nebulizer pressure 40 psig (N2), drying gas […] (N2), drying gas temperature 300 °C, capillary voltage 3.0 kV, fragmentor voltage 150 V.

Data set [4] relates to HaCaT (immortalized human keratinocytes). Kind of data set: MTT cell viability assay, non-tumor HaCaT. It counts as cell-based. Conditions: Homo sapiens, HaCaT, 72 h of incubation, non-tumor cell line. Here is the method: as §1
We also performed an assay on the non-tumor cell line HaCaT (immortalized human keratinocytes) to assess if the effect of 11–13 was selective toward HeLa cells or resulted from a more general toxic activity.
as §2, §3
For orientation: Formazan colour is commonly taken as a measure of viable cells.

For data set [5], the system named is HeLa cells. The data set is described as follows: Apoptosis detection by Annexin V-PE and 7-AAD staining, flow cytometry. It counts as cell-based, human. Conditions: 5 and 10 µM, 48 h. How it is done: In order to determine whether the anti-proliferative effects of 11, 12 and 13 were associated with their ability to induce apoptosis in HeLa cells, the induction of phosphatidylserine externalization by compounds 11, 12 and 13 was examined by flow cytometric analysis. The cells were treated with 2.5, 5 and 10 µM concentrations of 11, 12 and 13 for 24 and 48 h and stained with Annexin V-PE and 7-AAD. […] After 24 h of treatment, a significant increase in the early apoptotic population of cells was visible starting from the concentration of 5 µM.
Detection of apoptosis by Annexin V-PE and 7-AAD staining: Apoptosis induction was detected with an Annexin V-PE Apoptosis Detection Kit I (BD Biosciences, Belgium) according to the manufacturer’s instructions. The cells were treated with 11–13 (2.5, 5 and 10 µM) for 24 and 48 h. Following treatment, the cells were collected and stained with Annexin V-phycoerythrin (PE) and 7-amino-actinomycin (7-AAD) in Annexin-binding buffer for 15 min at RT in the dark. The acquisition was performed on a FACSCalibur cytometer (BD), and the data were analyzed with Flowing software (version 2.5).

Broadly, the IC50 is the concentration at which inhibition is half-maximal. High values mean weaker potency in that assay, low ones greater potency in that assay. For the compound `Cc1cc(S(=O)(=O)NC(=N)n2ccn(C)c2=S)c(SCc2ccc(Cl)cc2)cc1Cl` [Compound 11, 4-Chloro-N-[imino(3-methyl-2-thioxo-2,3-dihydro-1H-imidazol-1-yl)methyl]-5-methyl-2-(4-chlorobenzylthio)benzenesulfonamide], in data set [1], the “percentage of cells in the sub-G1 phase of the cell cycle” value (“percentage of cells” below) is recorded as “increase in the percentage of cells in the sub-G1 phase”. Also, the IC50 was > 100 µM in data set [2] (MTT assay, 72 h of incubation) and 18 ± 0.5 µM in data set [4]. Besides, the half-life at 10 μM in data set [3] stood at 9.1 min. The “cells in the late stage of apoptosis” value in data set [5] is recorded as “significant increase in cells in the late stage of apoptosis”.

As a reminder, the viability is a read-out of living cells in per cent, often relative to untreated cells. Consider `Cc1cc(S(=O)(=O)NC(=N)n2ccn(C)c2=S)c(SCc2cc3c(cc2Cl)OCO3)cc1Cl` [Compound 12], for which, in data set [1], the “percentage of cells” value was “increase in the percentage of cells in the sub-G1 phase”. Also, the cell cycle arrest entry in data set [1] (HeLa, 7 and 10 μM) is on record as “induced G2/M arrest”. The viability at 100 µM in data set [2] is 100%. Further, in data set [3] (human liver microsomes with NADPH, order 12 > 13 > 11), the “relative metabolic stability in vitro” value is reported as “exhibited the best stability in vitro among the studied set of compounds”. For the same compound, the half-life at 10 μM in data set [3] turned out to be 20.3 min. The compound further came in with an IC50 in data set [4] of 20 ± 1 µM. In addition, in data set [5], the “cells in the late stage of apoptosis” value is reported as “significant increase in cells in the late stage of apoptosis”.

With `Cc1cc(S(=O)(=O)NC(=N)n2ccn(C)c2=S)c(SCc2cccc3ccccc23)cc1Cl` [Compound 13, 4-Chloro-N-[imino(3-methyl-2-thioxo-2,3-dihydro-1H-imidazol-1-yl)methyl]-5-methyl-2-(naphthalen-1-ylmethylthio)benzenesulfonamide], the “percentage of cells” value in data set [1] is given as “increase in the percentage of cells in the sub-G1 phase”. Besides, the viability at 100 µM in data set [2] worked out at 100%. In addition, the half-life at 10 μM in data set [3] turned out to be 13.9 min. This compound registered an IC50 in data set [4] of 18 ± 0.5 µM. Also, the “cells in the late stage of apoptosis” value in data set [5] was “significant increase in cells in the late stage of apoptosis”.
